According to patent US10889553B2, “Asymmetric triazole benzamide derivatives and the compositions and methods of treatment regarding the same” (NysnoBio Ireland DAC, priority 2017, dated 2021):

Key:
MAPK1 (ERK2) = MAPK1 (ERK2) (Homo sapiens, UniProt P28482); assay: Kinase panel assay; format: biochemical
Text: (§1) Compound 42 was also screened in a kinase panel assay.

CDK2/Cyclin A = CDK2/Cyclin A (Homo sapiens, UniProt P24941); assay: Kinase panel assay; format: biochemical
Text: as §1

MAPK14 (p38 alpha) = MAPK14 (p38 alpha) (Homo sapiens, UniProt Q16539); assay: Kinase panel assay; format: biochemical
Text: as §1

PLK1 = PLK1 (Homo sapiens, UniProt P53350); assay: Kinase panel assay; format: biochemical
Text: as §1

CDK6/CyclinD1 = CDK6/CyclinD1 (Homo sapiens, UniProt Q00534); assay: Kinase panel assay; format: biochemical
Text: as §1

CDK4/CyclinD1 = CDK4/CyclinD1 (Homo sapiens, UniProt P11802); assay: Kinase panel assay; format: biochemical
Text: as §1

ABL1 = ABL1 (Homo sapiens, UniProt P00519); assay: Kinase panel assay; format: biochemical
Text: as §1

AURKA (Aurora A) = AURKA (Aurora A) (Homo sapiens, UniProt O14965); assay: Kinase panel assay; format: biochemical
Text: as §1

CDK4/CyclinD3 = CDK4/CyclinD3 (Homo sapiens, UniProt P11802); assay: Kinase panel assay; format: biochemical
Text: as §1

MAPK3 (ERK1) = MAPK3 (ERK1) (Homo sapiens, UniProt P27361); assay: Kinase panel assay; format: biochemical
Text: as §1

EGFR (ErbB1) = EGFR (ErbB1) (Homo sapiens, UniProt P00533); assay: Kinase panel assay; format: biochemical
Text: as §1

GSK3B (GSK3 beta) = GSK3B (GSK3 beta) (Homo sapiens, UniProt P49841); assay: Kinase panel assay; format: biochemical
Text: as §1

PAK4 = PAK4 (Homo sapiens, UniProt O96013); assay: Kinase panel assay; format: biochemical
Text: as §1

PIM1 = PIM1 (Homo sapiens, UniProt P11309); assay: Kinase panel assay; format: biochemical
Text: as §1

44 protein targets = assay: Selectivity screen against 44 protein targets (whole panel); format: binding; details: 10 μM; % inhibition less than 50% is considered no effect
Text: (§2) If the % inhibition is less than 50%, the test compounds is consider to have no effect.

COX2(h) = COX2(h) (Homo sapiens, UniProt P35354); assay: Selectivity screen, radioligand displacement; format: binding; details: read-out: % Inhib COX2(h)
Text: as §2

H2 (h) = H2 (h) (Homo sapiens, UniProt P25021); assay: Selectivity screen, radioligand displacement; format: binding; details: read-out: % Inhib H2 (h)
Text: as §2

mu (MOP) (h) = mu (MOP) (h) (Homo sapiens, UniProt P35372); assay: Selectivity screen, radioligand displacement; format: binding; details: read-out: % Inhib mu (MOP) (h)
Text: as §2

COX1(h) = COX1(h) (Homo sapiens, UniProt P23219); assay: Selectivity screen, radioligand displacement; format: binding; details: read-out: % Inhib COX1(h)
Text: as §2

[1] = system: Ca2+ channel (L, dihydropyridine); assay: Selectivity screen, radioligand displacement; format: binding; details: Compound 42 at 10 μM
Text: as §2

CB2 (h) = CB2 (h) (Homo sapiens, UniProt P34972); assay: Selectivity screen, radioligand displacement; format: binding; details: read-out: % Inhib CB2 (h)
Text: as §2

D2S (h) = D2S (h) (Homo sapiens, UniProt P14416); assay: Selectivity screen, radioligand displacement; format: binding; details: read-out: % Inhib D2S (h)
Text: as §2

D1 (h) = D1 (h) (Homo sapiens, UniProt P21728); assay: Selectivity screen, radioligand displacement; format: binding
Text: as §2

alpha 1A (h) = alpha 1A (h) (Homo sapiens, UniProt P35348); assay: Selectivity screen, radioligand displacement; format: binding; details: read-out: % Inhib alpha 1A (h)
Text: as §2

M3 (h) = M3 (h) (Homo sapiens, UniProt P20309); assay: Selectivity screen, radioligand displacement; format: binding; details: read-out: % Inhib M3 (h)
Text: as §2

M2 (h) = M2 (h) (Homo sapiens, UniProt P08172); assay: Selectivity screen, radioligand displacement; format: binding; details: read-out: % Inhib M2 (h)
Text: as §2

ETA (h) = ETA (h) (Homo sapiens, UniProt P25101); assay: Selectivity screen, radioligand displacement; format: binding; details: read-out: % Inhib ETA (h)
Text: as §2

beta 1 (h) = beta 1 (h) (Homo sapiens, UniProt P08588); assay: Selectivity screen, radioligand displacement; format: binding; details: read-out: % Inhib beta 1 (h)
Text: as §2

kappa (KOP) = kappa (KOP) (Rattus norvegicus, UniProt P34975); assay: Selectivity screen, radioligand displacement; format: binding; details: read-out: % Inhib kappa (KOP)
Text: as §2

PDE3A (h) = PDE3A (h) (Homo sapiens, UniProt Q14432); assay: Selectivity screen, radioligand displacement; format: binding; details: read-out: % Inhib PDE3A (h)
Text: as §2

5-HT transporter (h) = 5-HT transporter (h) (Homo sapiens, UniProt P31645); assay: Selectivity screen, radioligand displacement; format: binding; details: read-out: % Inhib 5-HT transporter (h)
Text: as §2

alpha 2A (h) = alpha 2A (h) (Homo sapiens, UniProt P08913); assay: Selectivity screen, radioligand displacement; format: binding; details: read-out: % Inhib alpha 2A (h)
Text: as §2

dopamine transporter (h) = dopamine transporter (h) (Homo sapiens, UniProt Q01959); assay: Selectivity screen, radioligand displacement; format: binding; details: read-out: % Inhib dopamine transporter (h)
Text: as §2

NA+ Channel (Site2) = assay: Selectivity screen, radioligand displacement; format: binding; details: Compound 42 at 10 μM
Text: as §2

5-HT3 (h) = 5-HT3 (h) (Homo sapiens, UniProt P46098); assay: Selectivity screen, radioligand displacement; format: binding; details: read-out: % Inhib 5-HT3 (h)
Text: as §2

kappa (KOP), sequence (P34975 whole entry): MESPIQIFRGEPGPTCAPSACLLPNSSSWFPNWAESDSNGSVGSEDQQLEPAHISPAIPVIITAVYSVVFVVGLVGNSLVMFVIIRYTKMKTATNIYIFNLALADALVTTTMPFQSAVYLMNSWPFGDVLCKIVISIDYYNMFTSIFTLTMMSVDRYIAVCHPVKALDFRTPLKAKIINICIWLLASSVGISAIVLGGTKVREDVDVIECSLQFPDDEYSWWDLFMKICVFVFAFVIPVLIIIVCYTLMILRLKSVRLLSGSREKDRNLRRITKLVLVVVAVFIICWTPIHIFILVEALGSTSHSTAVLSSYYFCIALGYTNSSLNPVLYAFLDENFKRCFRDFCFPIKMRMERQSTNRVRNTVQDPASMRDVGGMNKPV
COX1(h), sequence (P23219 24-599): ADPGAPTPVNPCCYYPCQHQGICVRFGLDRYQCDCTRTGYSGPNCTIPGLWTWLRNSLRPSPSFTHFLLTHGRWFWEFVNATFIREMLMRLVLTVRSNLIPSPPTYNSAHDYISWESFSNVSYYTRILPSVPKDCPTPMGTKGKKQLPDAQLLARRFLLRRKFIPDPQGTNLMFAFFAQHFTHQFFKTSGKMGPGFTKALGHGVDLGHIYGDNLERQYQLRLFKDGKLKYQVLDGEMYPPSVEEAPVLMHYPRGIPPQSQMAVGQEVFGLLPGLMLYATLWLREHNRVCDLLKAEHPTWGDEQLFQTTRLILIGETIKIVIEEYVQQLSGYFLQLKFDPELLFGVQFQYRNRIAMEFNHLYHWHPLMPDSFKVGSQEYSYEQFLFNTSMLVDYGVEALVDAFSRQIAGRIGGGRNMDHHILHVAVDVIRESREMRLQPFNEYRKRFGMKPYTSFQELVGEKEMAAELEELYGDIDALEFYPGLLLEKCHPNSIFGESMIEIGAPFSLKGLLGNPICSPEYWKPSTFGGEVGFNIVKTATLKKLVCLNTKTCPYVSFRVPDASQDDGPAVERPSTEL
dopamine transporter (h), sequence (Q01959 whole entry): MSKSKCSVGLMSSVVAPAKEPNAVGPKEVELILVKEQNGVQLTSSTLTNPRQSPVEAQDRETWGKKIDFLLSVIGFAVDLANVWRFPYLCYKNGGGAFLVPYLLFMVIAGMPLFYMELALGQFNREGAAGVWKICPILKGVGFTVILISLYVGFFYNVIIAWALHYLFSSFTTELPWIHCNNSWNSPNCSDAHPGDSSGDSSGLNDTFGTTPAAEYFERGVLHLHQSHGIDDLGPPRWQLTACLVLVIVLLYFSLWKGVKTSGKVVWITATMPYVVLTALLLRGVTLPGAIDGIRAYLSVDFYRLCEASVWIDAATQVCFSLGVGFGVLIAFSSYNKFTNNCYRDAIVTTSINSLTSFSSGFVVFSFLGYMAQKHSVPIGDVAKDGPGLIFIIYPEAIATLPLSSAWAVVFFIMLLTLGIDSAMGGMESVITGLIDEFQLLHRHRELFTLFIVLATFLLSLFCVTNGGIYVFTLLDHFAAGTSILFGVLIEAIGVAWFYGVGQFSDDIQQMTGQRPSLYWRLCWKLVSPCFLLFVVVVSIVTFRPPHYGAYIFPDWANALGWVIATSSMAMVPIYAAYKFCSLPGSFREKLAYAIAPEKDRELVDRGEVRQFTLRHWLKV
ABL1, sequence (P00519 whole entry, species assumed): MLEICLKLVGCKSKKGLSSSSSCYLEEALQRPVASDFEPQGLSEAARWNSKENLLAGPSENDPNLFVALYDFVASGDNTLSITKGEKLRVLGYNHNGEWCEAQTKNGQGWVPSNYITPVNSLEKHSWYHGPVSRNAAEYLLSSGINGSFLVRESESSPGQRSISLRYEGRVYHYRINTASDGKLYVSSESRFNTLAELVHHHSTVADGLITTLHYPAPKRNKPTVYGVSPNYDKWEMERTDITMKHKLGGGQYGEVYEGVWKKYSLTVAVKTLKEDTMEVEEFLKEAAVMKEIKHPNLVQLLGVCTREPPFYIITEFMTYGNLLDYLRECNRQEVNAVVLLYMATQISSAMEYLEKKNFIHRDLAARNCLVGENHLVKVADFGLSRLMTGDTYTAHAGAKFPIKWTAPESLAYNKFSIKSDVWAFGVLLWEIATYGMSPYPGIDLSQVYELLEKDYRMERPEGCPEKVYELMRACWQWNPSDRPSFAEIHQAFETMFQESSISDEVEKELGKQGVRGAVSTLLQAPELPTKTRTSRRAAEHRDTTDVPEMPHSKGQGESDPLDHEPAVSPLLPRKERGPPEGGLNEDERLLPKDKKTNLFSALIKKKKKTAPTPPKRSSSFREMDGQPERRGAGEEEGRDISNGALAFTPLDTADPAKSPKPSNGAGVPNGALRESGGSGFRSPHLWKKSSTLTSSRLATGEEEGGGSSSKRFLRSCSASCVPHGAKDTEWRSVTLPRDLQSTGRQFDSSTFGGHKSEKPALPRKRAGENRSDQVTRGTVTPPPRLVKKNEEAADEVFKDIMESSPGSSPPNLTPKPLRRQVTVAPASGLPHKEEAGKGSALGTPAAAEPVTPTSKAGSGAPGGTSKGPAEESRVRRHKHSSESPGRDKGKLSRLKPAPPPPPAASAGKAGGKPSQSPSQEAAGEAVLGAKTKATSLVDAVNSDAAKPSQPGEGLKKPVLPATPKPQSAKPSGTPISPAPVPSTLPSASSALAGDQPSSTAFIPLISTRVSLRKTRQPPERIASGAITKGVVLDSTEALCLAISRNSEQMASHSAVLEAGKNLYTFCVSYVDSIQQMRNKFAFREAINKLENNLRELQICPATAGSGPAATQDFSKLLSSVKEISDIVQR
D1 (h), sequence (P21728 whole entry): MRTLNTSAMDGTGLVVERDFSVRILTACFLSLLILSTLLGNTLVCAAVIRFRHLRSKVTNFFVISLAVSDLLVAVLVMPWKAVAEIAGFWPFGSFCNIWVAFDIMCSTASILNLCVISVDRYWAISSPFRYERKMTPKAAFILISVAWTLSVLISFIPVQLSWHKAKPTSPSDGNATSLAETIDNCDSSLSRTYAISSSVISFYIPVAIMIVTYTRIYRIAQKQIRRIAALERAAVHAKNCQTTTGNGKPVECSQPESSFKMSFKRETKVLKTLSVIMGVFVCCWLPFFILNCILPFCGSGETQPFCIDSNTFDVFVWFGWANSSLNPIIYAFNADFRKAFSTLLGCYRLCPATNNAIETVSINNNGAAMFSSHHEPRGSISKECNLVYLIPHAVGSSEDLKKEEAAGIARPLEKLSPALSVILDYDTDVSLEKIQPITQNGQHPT
D2S (h), sequence (P14416 1-414 isoform P14416-2): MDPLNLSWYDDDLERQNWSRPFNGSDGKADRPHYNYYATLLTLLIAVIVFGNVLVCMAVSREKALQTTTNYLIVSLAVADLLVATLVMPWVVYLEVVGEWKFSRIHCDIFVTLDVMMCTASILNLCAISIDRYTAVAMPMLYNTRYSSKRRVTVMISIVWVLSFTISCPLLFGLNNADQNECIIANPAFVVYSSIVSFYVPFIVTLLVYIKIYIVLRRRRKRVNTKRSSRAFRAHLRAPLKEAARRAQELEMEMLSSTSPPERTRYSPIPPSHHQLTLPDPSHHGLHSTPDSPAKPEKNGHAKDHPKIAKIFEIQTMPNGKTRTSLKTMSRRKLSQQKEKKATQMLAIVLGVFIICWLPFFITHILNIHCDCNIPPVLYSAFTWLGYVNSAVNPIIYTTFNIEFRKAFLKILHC
mu (MOP) (h), sequence (P35372 whole entry): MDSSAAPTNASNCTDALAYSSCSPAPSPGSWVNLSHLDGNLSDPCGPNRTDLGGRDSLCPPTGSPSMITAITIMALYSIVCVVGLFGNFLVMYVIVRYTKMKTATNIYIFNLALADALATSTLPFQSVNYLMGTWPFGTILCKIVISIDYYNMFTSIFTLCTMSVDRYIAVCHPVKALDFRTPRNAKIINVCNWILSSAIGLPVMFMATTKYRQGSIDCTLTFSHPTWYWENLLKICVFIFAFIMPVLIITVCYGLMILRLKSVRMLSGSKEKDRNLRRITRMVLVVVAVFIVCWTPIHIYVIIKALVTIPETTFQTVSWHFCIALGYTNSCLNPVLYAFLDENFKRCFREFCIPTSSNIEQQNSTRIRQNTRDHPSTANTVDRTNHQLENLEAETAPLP
MAPK14 (p38 alpha), sequence (Q16539 whole entry, species assumed): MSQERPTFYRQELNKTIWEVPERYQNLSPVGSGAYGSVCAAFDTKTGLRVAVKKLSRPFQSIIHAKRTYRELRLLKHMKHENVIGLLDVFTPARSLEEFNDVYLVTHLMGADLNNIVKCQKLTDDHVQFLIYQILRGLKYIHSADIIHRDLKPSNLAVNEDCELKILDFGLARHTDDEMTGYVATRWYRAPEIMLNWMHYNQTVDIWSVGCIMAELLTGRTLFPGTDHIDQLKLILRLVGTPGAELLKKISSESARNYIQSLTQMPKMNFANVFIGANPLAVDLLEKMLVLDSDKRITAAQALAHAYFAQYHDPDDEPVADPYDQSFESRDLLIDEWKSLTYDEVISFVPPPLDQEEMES
CB2 (h), sequence (P34972 whole entry): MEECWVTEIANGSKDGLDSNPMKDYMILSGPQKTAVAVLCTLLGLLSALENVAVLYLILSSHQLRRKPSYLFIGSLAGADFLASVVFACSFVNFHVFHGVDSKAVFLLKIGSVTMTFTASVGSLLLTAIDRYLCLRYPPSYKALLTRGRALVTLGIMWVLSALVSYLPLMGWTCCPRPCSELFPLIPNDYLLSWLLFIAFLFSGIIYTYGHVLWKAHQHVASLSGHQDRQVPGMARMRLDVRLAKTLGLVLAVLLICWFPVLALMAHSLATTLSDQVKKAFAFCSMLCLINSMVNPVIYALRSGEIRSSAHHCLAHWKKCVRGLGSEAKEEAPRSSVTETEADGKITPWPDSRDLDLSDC
PIM1, sequence (P11309 whole entry, species assumed): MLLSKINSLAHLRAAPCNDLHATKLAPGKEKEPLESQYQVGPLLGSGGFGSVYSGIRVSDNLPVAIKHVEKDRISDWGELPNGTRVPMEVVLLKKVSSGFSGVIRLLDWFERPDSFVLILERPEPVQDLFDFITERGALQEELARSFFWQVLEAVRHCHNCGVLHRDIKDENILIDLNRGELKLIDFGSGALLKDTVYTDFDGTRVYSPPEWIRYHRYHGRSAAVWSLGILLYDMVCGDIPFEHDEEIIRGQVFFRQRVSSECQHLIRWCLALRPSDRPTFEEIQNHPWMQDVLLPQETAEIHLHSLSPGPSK

Compound Cc1ccccc1C(=O)Nc1nc(NC(=O)c2ccccc2C)n(-c2ccc(OC(F)(F)F)cc2)n1 [Compound 42, N,N′-(1-(4-(trifluoromethoxy)phenyl)-1H-1,2,4-triazole-3,5-diyl)bis(2-methylbenzamide)] has an inhibition at 10 µM (MAPK1 (ERK2)) of 4%, an inhibition at 10 µM (CDK2/Cyclin A) of 4% and an inhibition at 10 µM (MAPK14 (p38 alpha)) of 19%. It also gave an inhibition at 10 µM (PLK1) of 4%, an inhibition at 10 µM (CDK6/CyclinD1) of 0% and an inhibition at 10 µM (CDK4/CyclinD1) of 12%. For the same compound, the inhibition at 10 µM (ABL1) was 8%, the inhibition at 10 µM (AURKA (Aurora A)) was 4% and the inhibition at 10 µM (CDK4/CyclinD3) was 3%. The inhibition at 10 µM (MAPK3 (ERK1)) was 1%, the inhibition at 10 µM (EGFR (ErbB1)) was 8% and the inhibition at 10 µM (GSK3B (GSK3 beta)) was 12%. The inhibition at 10 µM (PAK4) was 5%, the inhibition at 10 µM (PIM1) was 5% and the “effect against the 44 protein targets” value (44 protein targets) was “no effects”. It also gave an inhibition at 10 µM (COX2(h)) of 1%, an inhibition at 10 µM (H2 (h)) of less than 1% and an inhibition at 10 µM (mu (MOP) (h)) of 6%. The inhibition at 10 µM (COX1(h)) was 19%, the “% Inhib Ca2+ channel (L, dihydropyridine)” value [1] was 45% and the inhibition at 10 µM (CB2 (h)) was less than 1%. The inhibition at 10 µM (D2S (h)) was less than 1%, the inhibition at 10 µM (D1 (h)) was less than 1% and the inhibition at 10 µM (alpha 1A (h)) was 16%. It also gave an inhibition at 10 µM (M3 (h)) of less than 1%, an inhibition at 10 µM (M2 (h)) of less than 1% and an inhibition at 10 µM (ETA (h)) of less than 1%. The inhibition at 10 µM (beta 1 (h)) was less than 1%, the inhibition at 10 µM (kappa (KOP)) was 3% and the inhibition at 10 µM (PDE3A (h)) was 13%. The inhibition at 10 µM (5-HT transporter (h)) was 10%, the inhibition at 10 µM (alpha 2A (h)) was less than 1% and the inhibition at 10 µM (dopamine transporter (h)) was 13%. For the same compound, the “% Inhib NA+ Channel (Site2)” value (NA+ Channel (Site2)) was 43% and the inhibition at 10 µM (5-HT3 (h)) was less than 1%.
